{"source": "patent US5501976A", "about": "“Methods and compositions for the control of the flesh fly” (The University of Florida, priority 1995, dated 1996)", "key": {"[1]": {"tested_on": "trypsin biosynthesis in the midgut of female Neobellieria bullata", "assay": "Effect of injected peptide on trypsin biosynthesis in the gut ([3H]DFP assay)", "format": "in vivo"}, "trypsin-like enzymes": {"tested_on": "trypsin-like enzymes", "assay": "Gut supernatant incubated with Neb-TMOF: conversion of [3H]DFP to [3H]DIP-trypsin derivatives", "format": "biochemical, Neobellieria", "conditions": "gut supernatant incubated 18 hours at 4° C. with Neb-TMOF (FIG. 6)"}, "[2]": {"tested_on": "vitellogenin biosynthesis", "assay": "Vitellogenin in hemolymph of injected females (SDS-PAGE)", "format": "in vivo, Neobellieria", "method": "Electrophoresis and fluorography. ^3 H!DIP-trypsin-like derivatives of 0.04 gut equivalent and 20 μl sample buffer were run by electrophoresis on 12.5% polyacrylamide gel for 1 hour at 20 mA and for 3 hours at 30 mA (Biorad protean 32 CM) (Laemmli, 1970; Borovsky and Schlein, 1988). Gels were stained for 20 minutes with Coomassie Brilliant Blue R250 and destained overnight with methanol/H2 O/acetic acid (40/50/10), and washed 2 times for 30 minutes in 100 ml dimethylsulfoxide (DMSO). Gels were then incubated for 2 h in 200 ml DMSO containing 44 g 2,5-diphenyloxazole (PPO) (Janssen Chimica, Belgium), rinsed with distilled water for 1 hour, dried for 2 hours in a Biorad slab gel dryer at 80° C. and exposed to a Hyperfilm-MP (Amersham) for 2 days at -70° C. Vitellogenin was separated on a 5-15% SDS gradient gel (Huybrechts and De Loof 1977).\nFour-day-old females were injected with synthetic Neb-TMOF at final concentration of 10^-9 M. Twenty-four hours later, hemolymph was collected and subjected to PAGE. […] The three yolk polypeptides of vitellogenin were affected (FIG. 7). The decrease in vitellogenin in the hemolymph is probably due to the inhibition of trypsin biosynthesis and decrease in protein digestion in the gut. The Neb-TMOF can also affect the fat body, which is the major site of yolk polypeptide biosynthesis in Neobellieria."}, "[3]": {"tested_on": "ecdysone biosynthesis by ring glands", "assay": "In vitro ecdysone biosynthesis by larval ring glands", "format": "cell-based, Calliphora and Neobellieria"}, "ecdysteroid titer": {"tested_on": "ecdysteroid titer", "assay": "In vivo ecdysteroid titer in larvae", "conditions": "ten picomole per larva, within 18 hours"}}, "note": "Values joined by “and” are separate entries in the source; they are usually repeats but may differ in a detail not shown here. Equal entries are not always repeated. Where two headings read alike, the source gives them in different places. Where no end group is shown, it is not given here.", "data": [{"compound": "CSCC[C@H](NC(=O)[C@H](Cc1ccccc1)NC(=O)CNC(=O)CNC(=O)[C@@H](N)Cc1ccc(O)cc1)C(=O)O", "note": "[methionine-enkephalin, H-YGGFM-OH, reference compound]", "values": [{"measurement": "effect on trypsin-like activity", "setting": "[1]; injected with 10^-7 M, control group", "value": "without an effect"}]}, {"compound": "NPTNLH [Neb-TMOF, NH2 -Asn-Pro-Thr-Asn-Leu-His-COOH]", "values": [{"measurement": "inhibition of trypsin biosynthesis", "setting": "[1]; 10^-8 M, injected 4-day-old females", "value": 35, "unit": "%"}, {"measurement": "reduction in trypsin-like enzymes as compared with controls", "setting": "[1]; 10^-9 M injected, liver meal, guts removed 6 h later (FIG. 6)", "value": 51, "unit": "%"}, {"measurement": "inhibition of trypsin biosynthesis", "setting": "[1]; 10^-9 M, injected females", "value": "60% and 50%"}, {"measurement": "inhibition of trypsin biosynthesis", "setting": "[1]; 10^-11 M", "value": "No inhibition"}, {"measurement": "inhibition of trypsin biosynthesis", "setting": "[1]; column purification step 1, 1.25 ovary equivalents, P<0.05", "value": 44, "unit": "%"}, {"measurement": "inhibition of trypsin biosynthesis", "setting": "[1]; column purification step 2, 3.7 ovary equivalents, P<0.05", "value": 38, "unit": "%"}, {"measurement": "inhibition of trypsin biosynthesis", "setting": "[1]; column purification step 3, 10 ovary equivalents, P<0.05", "value": 43, "unit": "%"}, {"measurement": "inhibition of trypsin biosynthesis", "setting": "[1]; column purification step 4, 10 ovary equivalents, P<0.05", "value": 44, "unit": "%"}, {"measurement": "inhibition of trypsin biosynthesis", "setting": "[1]; column purification step 5, 38.5 ovary equivalents, P<0.05", "value": 20, "unit": "%"}, {"measurement": "inhibition of trypsin biosynthesis in the gut, significance (FIG. 5)", "setting": "[1]; in vivo, 10^-8 M and 10^-9 M, P<0.05", "value": "Significant inhibition"}, {"measurement": "effective dose of 50% inhibition (ED50) of trypsin biosynthesis", "setting": "[1]; physiological concentrations", "value": "10^-9 M"}, {"measurement": "activity in Neobellieria relative to mosquito TMOF", "setting": "[1]; versus mosquito TMOF", "value": "six fold more active"}, {"measurement": "reduction in [3H]DIP-trypsin derivatives compared with controls", "setting": "trypsin-like enzymes", "value": "No reduction"}, {"measurement": "vitellogenin level in hemolymph compared with non-injected controls", "setting": "[2]; 10^-9 M injected, 24 hours later, PAGE", "value": "low level of vitellogenin"}, {"measurement": "egg yolk synthesis after injection", "setting": "[2]; injection of the hormone", "value": "inhibited egg yolk synthesis"}, {"measurement": "PTIH effect, onset and reversibility", "setting": "[3]", "value": "immediate and reversible"}, {"measurement": "ecdysone biosynthesis inhibited", "setting": "[3]; 10^-7 M", "value": "More than 98%"}, {"measurement": "EC50", "setting": "[3]; ring glands of Neobellieria and Calliphora, read-out: EC50 of the biosynthesis of ecdysone by ring glands", "value": 5, "unit": "nM"}, {"measurement": "EC50", "setting": "[3]; ring glands of larvae of Calliphora and Neobellieria, read-out: EC50 of in vitro ecdysone biosynthesis by ring glands", "value": 5, "unit": "nM"}, {"measurement": "reduction of ecdysteroid titer in vivo", "setting": "ecdysteroid titer", "value": "up to a factor of four"}]}]}
